The subject of data set [1] is DU-145 cells. Put plainly: Clonogenic assay. As to conditions: 24 h treatment, colonies after 7 days. It is filed as cell-based, human. The method, then:
The clonogenic assay was performed in accordance with the guidelines of ([34]). […] DMSO (0.1% v/v) was used as the vehicle control. After 24 h, the cells were washed with PBS (Gibco-Invitrogen®) and harvested by trypsinization. Cells were counted using a Neubauer chamber and replated then on cell culture dishes of 21.5 cm^2 in a density of 200 cells per culture dish for each treatment in triplicate. After 7 days, cells were fixed in ice-cold methanol: acetic acid: distilled water (1:1:8), air-dried, and stained with crystal violet (0.5% w/v, Sigma-Aldrich) for 20 min. Colonies with at least 50 cells were counted. Plating efficiency (PE) of DU-145 cells was calculated by the ratio of the number of colonies observed after 7 days of incubation to the number of cells seeded (two hundred). The average of colonies in control was considered as 100%, and the number of colonies that arise after treatment of cells is called the surviving fraction (SF), obtained by:
SF = Numberofcoloniescountedineachtreatment/Numberofcoloniescountedincontrol x PE × 100

The next data set has as its system DU-145 MCTSs. Put plainly: 3D multicellular tumor spheroids (MCTSs) culture. Format: cell-based, human. As to conditions: 3D spheroids, 24 h, Alamar blue; read-out: IC50 against the DU-145 MCTSs. On the procedure:
Multicellular tumor spheroids (MCTSs) were obtained according to the method reported by ([33]). Briefly, 200 μl of a solution of DU-145 cells (2.0 × 10^3 cells/well) were inserted in agarose-coated 96-well plates (1.5% w/v) and cultured in complete medium plus 3% Matrigel® (Corning). DU-145-MCTSs with stable structures had formed after five days. […] Negative control received the vehicle (DMSO 0.1% v/v) that was used for diluting the compounds tested. Finally, the MCTS proliferation inhibition (%) and IC50 were determined by Alamar blue® assay as described above. To investigate morphological changes other MCTSs were treated with 0.25, 0.5, 1.0, 1.5, and 2.0 μM of complex (2) and examined for 7 days. Spheroid integrity and diameter of MCTSs were analyzed by phase-contrast microscopy (Inverted Trinocular Microscope Opton TNB-O5T-PL) using AxioVision LE software (Carl Zeiss, Germany).

Data set [2] deals with FGH (human mouth fibroblast). Put plainly: Alamar blue cytotoxicity assay, FGH non-cancer cells. It is filed as cell-based. As to conditions: 24-h incubation, mean ± S.E.M. The text has this: (§1) Human lung carcinoma (A549, ATCC® CCL-185™), human hepatocellular carcinoma (HepG2, ATCC® HB-8065™), and human breast adenocarcinoma (MDA-MB-231, ATCC® HTB-26™) were obtained from American Type Cell Collection (ATCC). Human melanoma (A-375, BCRJ-0278), Human colorectal adenocarcinoma (Caco-2, BCRJ 0059), human prostate adenocarcinoma (DU-145, BCRJ-0078, and PC-3, BCRJ-0269), human mouth fibroblast (FGH, BCRJ-0089), and human prostate epithelial cells (PNT-2, BCRJ-0366) were obtained from Rio de Janeiro Cells Bank (BCRJ). The cells A549, A-375, Caco-2, DU-145, HepG2, MDA-MB-231, and FGH were cultured in Dulbecco’s Modified Eagle’s Medium (DMEM, Gibco-Invitrogen®), PC-3 and PNT-2 cells were grown in Roswell Park Memorial Institute Medium (RPMI-1640, Gibco-Invitrogen®). Both mediums were supplemented according to the needs of each lineage, as recommended by its cell banks with 2 mM L-glutamine (Gibco-Invitrogen®), 10% or 20% fetal bovine serum (Gibco-Invitrogen®), 1% antibiotic-antimycotic solution (5 mg/ml penicillin, 5 mg/ml streptomycin, and 10 mg/ml neomycin, Gibco-Invitrogen®), and 3.7 g/L of NaHCO3 (Sigma-Aldrich). All cell lines were cultured in flasks at 37°C in 5% CO2 and 96% of relative humidity according to the procedures proposed by ([31]), and a mycoplasma stain kit (Sigma-Aldrich) was used to confirm the use of cells devoid of contamination. The assays were conducted between the third and the seventh-cell passage with sub-cultures every 3 to 4 days to maintain exponential growth. The cell viability was checked using the trypan blue dye exclusion assay for all experiments where over 95% of the cells were viable at the beginning of the tests.
(§2) The in vitro antiproliferative activity was quantified using the Alamar blue® assay, according to the method reported by ([32]). Cells were seeded in 96-well plates for all experiments (1.5 × 10^4 cells/well). After 24 h, the complexes were dissolved in DMSO and added to each well and incubated for 24 h. Dilutions of the complexes were prepared to obtain concentrations ranging from 0.3 to 100 μM. […] DMSO (0.1% v/v) was used as the vehicle control. Following 24 h of incubation, 50 μl of Alamar blue® (resazurin at 0.01% w/v, Sigma-Aldrich) was added to each well, and the plates were incubated, at 37°C, in the dark. Fluorescence reading was performed in a Synergy H1 Fluorescence Spectrophotometer (BioTek®), using excitation and emission filters at wavelengths of 560 and 590 nm, respectively. The fluorescence intensity was measured in arbitrary fluorescence units (AFU) and the AFU of untreated cells (CTL) was considered 100%. The cytotoxic effects of the compounds were estimated in terms of cell proliferation inhibition (%) and expressed as half-maximal inhibitory concentration (IC50). The cell proliferation inhibition percentage of cells exposed to treatments was calculated following: % Inhibition = 100 − (AFU of treated well/AFU of control well) × 100). The IC50 values were calculated from the cell proliferation inhibition percentage by nonlinear regression method using CompusSyn® Software.

Data set [3] relates to A549 (human lung carcinoma). The experiment in a line: Alamar blue cytotoxicity assay, A549. It is filed as cell-based. The settings on record: for IC50: A549, Alamar blue, 24-h incubation, mean ± S.E.M.
Text: as §1, §2

For data set [4], the system named is A-375 (human malignant melanoma). Put plainly: Alamar blue cytotoxicity assay, A-375. Format: cell-based. As to conditions: for IC50: A-375, Alamar blue, 24-h incubation, mean ± S.E.M.
Text: as §1, §2

Data set [5] has as its system HepG2 (human hepatocellular carcinoma). The experiment in a line: Alamar blue cytotoxicity assay, HepG2. Format: cell-based. The settings on record: for IC50: HepG2, Alamar blue, 24-h incubation, mean ± S.E.M.
Text: as §1, §2

Data set [6] relates to PC-3 (human prostate adenocarcinoma). Put plainly: Alamar blue cytotoxicity assay, PC-3. It is filed as cell-based. The settings on record: for IC50: PC-3, Alamar blue, 24-h incubation, mean ± S.E.M.
Text: as §1, §2

In data set [7] the test system is MDA-MB-231 (human breast adenocarcinoma). The experiment in a line: Alamar blue cytotoxicity assay, MDA-MB-231. Format: cell-based. As to conditions: for IC50: MDA-MB-231, Alamar blue, 24-h incubation, mean ± S.E.M.
Text: as §1, §2

The subject of data set [8] is DU-145 (human prostate adenocarcinoma). Put plainly: Alamar blue cytotoxicity assay, DU-145. It is filed as cell-based. As to conditions: for IC50: DU-145, Alamar blue, 24-h incubation, mean ± S.E.M.
Text: as §1, §2

The test system of data set [9] is DU-145 cells. The experiment in a line: Annexin-V/PI staining assay (flow cytometry). It is filed as cell-based, human. As to conditions: DU-145, 25 μM (~IC50), 24 h. On the procedure:
The measurement of cell death was performed by the guidelines of ([35]). Detection of apoptotic/necrotic cells was determined by flow cytometry using the Alexa Fluor® 488 Annexin V/PI (Thermo Fischer Scientific), and the analyses were performed according to the manufacturer’s instructions. […] DMSO (0.1% v/v) was used as the vehicle control. Following 24 h of incubation, the cells were collected with Accutase® (Gibco-Invitrogen®), washed with PBS and resuspended in 200 μl of cold annexin-binding buffer. Next, 10 μl of Alexa Fluor® was added to Annexin V (50 μl/ml) staining buffer, and the mixture was incubated in the dark at 4°C for 15 min. Previously, the analyses, 100 μl of PI (2 μg/ml) was added, and then, the fluorescence was measured by flow cytometry in a FACSCanto flow cytometer (BD Biosciences, USA) using the Diva software. Ten thousand events were evaluated per experiment, and cellular debris was omitted from the analysis.

For data set [10], the system named is PNT-2 (human prostate epithelial cells). The experiment in a line: Alamar blue cytotoxicity assay, PNT-2 non-cancer cells. The settings on record: mean ± S.E.M. It is filed as cell-based.
Text: as §1, §2

For data set [11], the system named is Caco-2 (human colorectal adenocarcinoma). Put plainly: Alamar blue cytotoxicity assay, Caco-2. It is filed as cell-based. As to conditions: for IC50: Homo sapiens, Caco-2, Alamar blue, 24-h incubation, mean ± S.E.M.
Text: as §1, §2

Details of data set [12]: method as in PMID 30776556. The settings on record: previously tested, not tested in the present work; read-out: IC50 (weak cytotoxicity); cited from earlier work.
The mark [13] stands for this setting: Homo sapiens, PNT2, 24-h incubation.

Data on five compounds can be found in PMC8264259, “A Novel Ruthenium(II) Complex With Lapachol Induces G2/M Phase Arrest Through Aurora-B Kinase Down-Regulation and ROS-Mediated Apoptosis in Human Prostate Adenocarcinoma Cells” (Frontiers in Oncology, 2021).

Where a name gives a salt, the structure may show the parent alone.

For `N.N.[Cl][Pt][Cl]` [CIS, Cisplatin, reference compound], the “survival fraction (SF)” value in the data set with DU-145 cells [1] (DU-145, 25 μM) turned out to be 69.1%. Also, the IC50 amounted to 62.6 µM with DU-145 MCTSs; 11.4 ± 0.5 µM in [2]; 11.9 ± 0.6 µM in data set [3]; 16.5 ± 2.3 µM in data set [4]; 14.1 ± 0.5 µM in data set [5]; 10.8 ± 1.1 µM in data set [6]. Also, the IC50 worked out at 22.1 ± 1.7 µM in data set [7], 24.3 ± 1.3 µM in data set [8] and 9.5 ± 0.3 µM in data set [10] (24-h incubation). Also, the “population of apoptotic cells” value in the data set on DU-145 cells [9] stood at 19.5%.
Regarding `COc1cccc2c1C(=O)c1c(O)c3c(c(O)c1C2=O)C[C@@](O)(C(=O)CO)C[C@@H]3O[C@H]1C[C@H](N)[C@H](O)[C@H](C)O1` [DXR, doxorubicin hydrochloride, reference compound], the “survival fraction (SF)” value with DU-145 cells [1] (DU-145, 2.5 μM) is given as 18.7%. Also, the IC50 in [2] (Homo sapiens, Fibroblast) was determined as 2.6 ± 0.6 µM; in [3] (Homo sapiens), 1.9 ± 0.4 µM; in [4] (Homo sapiens), 3.7 ± 0.6 µM; in [5] (Homo sapiens), 2.4 ± 0.8 µM; in data set [6] (Homo sapiens), 2.6 ± 0.3 µM; in data set [7] (Homo sapiens) it was 2.1 ± 0.7 µM. The IC50 in data set [8] (Homo sapiens) is 2.3 ± 0.5 µM; in data set [10] (setting [13]), 3.2 ± 0.5 µM; in data set [11], 2.1 ± 0.8 µM. Also, the “Selectivity index (SI)” value is 1.4 in data set [3] (SI = IC50[FGH]/IC50[A549]); 1.7 in [3] (SI = IC50[PNT-2]/IC50[A549]); 0.7 in data set [4] (SI = IC50[FGH]/IC50[A-375]); 0.9 in data set [4] (SI = IC50[PNT-2]/IC50[A-375]); 1.1 in data set [5] (SI = IC50[FGH]/IC50[HepG2]); 1.3 in data set [5] (SI = IC50[PNT-2]/IC50[HepG2]). Further, the “Selectivity index (SI)” value came to 1.0 in data set [6] (SI = IC50[FGH]/IC50[PC-3]); 1.2 in data set [6] (SI = IC50[PNT-2]/IC50[PC-3]); 1.2 in data set [7] (SI = IC50[FGH]/IC50[MDA-MB-231]); 1.5 in data set [7] (SI = IC50[PNT-2]/IC50[MDA-MB-231]); 1.1 in [8] (SI = IC50[FGH]/IC50[DU-145]); 1.4 in [8] (SI = IC50[PNT-2]/IC50[DU-145]). Moreover, the “Selectivity index (SI)” value stood at 1.2 in [11] (SI = IC50[FGH]/IC50[Caco-2]) and 1.5 in [11] (SI = IC50[PNT-2]/IC50[Caco-2]).
With `CC(C)=CCC1=C(O)C(=O)c2ccccc2C1=O` [Lp, 2-hydroxy-3-(3-methylbut-2-en-1-yl)naphthalene-1,4-dione, reference compound], the IC50 in [2] (Homo sapiens, Fibroblast) is more than 100 µM; in data set [3] (Homo sapiens) it was more than 100 µM; in data set [4] (Homo sapiens), more than 100 µM; in [5] (Homo sapiens), more than 100 µM; in data set [6] (Homo sapiens) it was more than 100 µM; in data set [7] (Homo sapiens) it was more than 100 µM. The concentration for half-maximal inhibition (IC50) in data set [8] (Homo sapiens), in data set [10] (setting [13]) and in data set [11] was more than 100 µM each time.
With `[Cl][Ru][Cl].c1ccc(-c2ccccn2)nc1.c1ccc(P(CP(c2ccccc2)c2ccccc2)c2ccccc2)cc1` [cis-[RuCl2(dppm)(bipy)]], in data set [12], the IC50 is more than 100 µM.
On to `[Cl][Ru][Cl].c1ccc(P(CP(c2ccccc2)c2ccccc2)c2ccccc2)cc1.c1cnc2c(c1)ccc1cccnc12` [cis-[RuCl2(dppm)(phen)]], for which the IC50 in data set [12] was more than 100 µM.
